How the values were obtained:
[1] = molecular target: T1, Peroxisome proliferator-activated receptor gamma (Homo sapiens, UniProt P37231); experiment: Agonist activity at human PPARgamma ligand binding domain expressed in monkey COS7 cells cotransfected with Gal4 by luciferase reporter gene assay
T1 sequence (P37231 whole entry): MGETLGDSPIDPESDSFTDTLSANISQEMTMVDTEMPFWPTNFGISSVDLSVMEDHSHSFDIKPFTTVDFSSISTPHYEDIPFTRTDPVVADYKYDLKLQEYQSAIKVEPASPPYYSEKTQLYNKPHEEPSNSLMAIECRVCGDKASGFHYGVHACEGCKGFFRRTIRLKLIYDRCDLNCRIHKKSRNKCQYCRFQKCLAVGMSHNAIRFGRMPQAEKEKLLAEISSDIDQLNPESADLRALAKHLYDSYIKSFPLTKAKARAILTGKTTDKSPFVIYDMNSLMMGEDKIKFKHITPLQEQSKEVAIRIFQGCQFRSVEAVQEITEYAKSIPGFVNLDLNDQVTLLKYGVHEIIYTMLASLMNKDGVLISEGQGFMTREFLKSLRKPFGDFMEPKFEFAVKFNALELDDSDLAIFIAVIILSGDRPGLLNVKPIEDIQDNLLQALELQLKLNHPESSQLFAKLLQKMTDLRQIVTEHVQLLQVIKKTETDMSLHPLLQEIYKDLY

[2] = molecular target: T2, Peroxisome proliferator-activated receptor delta (Homo sapiens, UniProt Q03181); experiment: Agonist activity at human PPARdelta ligand binding domain expressed in monkey COS7 cells cotransfected with Gal4 by luciferase reporter gene assay
T2 sequence (Q03181 whole entry): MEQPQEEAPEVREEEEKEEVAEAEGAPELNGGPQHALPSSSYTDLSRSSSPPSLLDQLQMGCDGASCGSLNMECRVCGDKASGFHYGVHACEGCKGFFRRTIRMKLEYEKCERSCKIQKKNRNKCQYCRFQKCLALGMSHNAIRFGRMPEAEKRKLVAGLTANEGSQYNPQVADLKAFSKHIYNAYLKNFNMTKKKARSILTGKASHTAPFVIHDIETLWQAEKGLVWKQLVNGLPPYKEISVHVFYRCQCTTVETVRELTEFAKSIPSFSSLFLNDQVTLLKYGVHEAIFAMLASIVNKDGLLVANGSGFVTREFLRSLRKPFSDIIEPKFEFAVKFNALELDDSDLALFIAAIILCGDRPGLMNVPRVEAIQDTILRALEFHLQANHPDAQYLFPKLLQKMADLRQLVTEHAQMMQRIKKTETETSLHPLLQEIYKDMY

Row | EC50 [1] [nM] | EC50 [2] [nM] | SMILES
1 | 19 | 54 | COC(c1ccc(Br)cc1)C1CC1c1cc(C)c(OC(C)(C)C(=O)O)c(C)c1 (stereo not drawn)
2 | 39 | – | CCOC(c1ccc(OC(F)(F)F)cc1)C1CC1c1cc(C)c(OC(C)(C)C(=O)O)c(C)c1 (stereo not drawn)

Reference: BindingDB's records for doi:10.1021/ml400413c (Dart Neuroscience, 2013)
